Results taken from patent publication US8802597B2, “Herbicidal pyrimidines” (E I du Pont de Nemours and Company, priority 2003, dated 2014).
Read-outs that look alike come from different tables or passages of the source.

Assays:
Format in all cases: in vivo
[1] = system: barnyardgrass (Echinochloa crus-galli); assay: Test A pre/postemergence; settings: Echinochloa crus-galli, 240 h, read-out: Plant response rating, Barnyardgrass; for pest or weed control at 125 g/ha: 125 g ai/ha; for pest or weed control at 500 g/ha: 500 g ai/ha
How it was run: (§1)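 Seeds sown in loam–sand blend received a preemergence directed soil spray of test chemical in non-phytotoxic solvent with surfactant; same-formulation postemergence spray given concurrently to plants 2–10 cm tall at 1- to 2-leaf stage. Greenhouse ~ten days, then visual injury rating versus untreated controls, 0 (no effect) to 100 (complete control).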

[2] = system: crabgrass (Digitaria sanguinalis); assay: Test A pre/postemergence; settings: Digitaria sanguinalis, 240 h, read-out: Plant response rating, Crabgrass; for pest or weed control at 125 g/ha: 125 g ai/ha; for pest or weed control at 500 g/ha: 500 g ai/ha
How it was run: as §1

[3] = system: giant foxtail (Setaria faberi); assay: Test A pre/postemergence; settings: Setaria faberi, 240 h, read-out: Plant response rating, Foxtail, Giant; for pest or weed control at 125 g/ha: 125 g ai/ha; for pest or weed control at 500 g/ha: 500 g ai/ha
How it was run: as §1

[4] = system: morningglory (Ipomoea spp.); assay: Test A pre/postemergence; settings: Ipomoea, 240 h, read-out: Plant response rating, Morningglory; for pest or weed control at 125 g/ha: 125 g ai/ha; for pest or weed control at 500 g/ha: 500 g ai/ha
How it was run: as §1

[5] = system: redroot pigweed (Amaranthus retroflexus); assay: Test A pre/postemergence; settings: Amaranthus retroflexus, 240 h, read-out: Plant response rating, Pigweed; for pest or weed control at 125 g/ha: 125 g ai/ha; for pest or weed control at 500 g/ha: 500 g ai/ha
How it was run: as §1

[6] = system: velvetleaf (Abutilon theophrasti); assay: Test A pre/postemergence; settings: Abutilon theophrasti, 240 h, read-out: Plant response rating, Velvetleaf; for pest or weed control at 125 g/ha: 125 g ai/ha; for pest or weed control at 500 g/ha: 500 g ai/ha
How it was run: as §1

[7] = system: giant foxtail (Setaria faberii); assay: Test C pre/postemergence; settings: Setaria faberi, post-emergence, Postemergence
How it was run: (§2)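 Greenhouse pot test: seeds treated preemergence, or plants at 2–18 cm (1- to 4-leaf stage) treated postemergence, with compound in non-phytotoxic solvent plus surfactant. Visual rating versus untreated controls after 12–14 days, scale 0 (no effect) to 100 (complete control); dash means not tested.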

[8] = system: goosegrass (Eleusine indica); assay: Test C pre/postemergence; settings: Eleusine indica, post-emergence, Postemergence
How it was run: as §2

[9] = system: lambsquarters (Chenopodium album); assay: Test C pre/postemergence; settings: Chenopodium album, post-emergence, Postemergence
How it was run: as §2

[10] = system: velvetleaf (Abutilon theophrasti); assay: Test C pre/postemergence; settings: Abutilon theophrasti, post-emergence, Postemergence
How it was run: as §2

[11] = system: chickweed (Stellaria media); assay: Test C postemergence; settings: Stellaria media, post-emergence
How it was run: as §2

[12] = post-emergence, Postemergence, 0 to 100 scale (0 no effect, 100 complete control)
[13] = pre-emergence, Preemergence, 0 to 100 scale where 0 is no effect and 100 is complete control, approximately ten days

Compound: CCOC(=O)c1nc(-c2ccc(Br)cc2)nc(N)c1Cl [Compound 94, ethyl 6-amino-2-(4-bromophenyl)-5-chloro-4-pyrimidinecarboxylate]
- pest or weed control at 125 g/ha [1, 12]: 30%
- pest or weed control at 500 g/ha [1, 12]: 60%
- pest or weed control at 125 g/ha [1, 13]: 5%
- pest or weed control at 500 g/ha [1, 13]: 40%
- pest or weed control at 125 g/ha [2, 12]: 35%
- pest or weed control at 500 g/ha [2, 12]: 50%
- pest or weed control at 125 g/ha [2, 13]: 45%
- pest or weed control at 500 g/ha [2, 13]: 55%
- pest or weed control at 125 g/ha [3, 12]: 45%
- pest or weed control at 500 g/ha [3, 12]: 65%
- pest or weed control at 125 g/ha [3, 13]: 20%
- pest or weed control at 500 g/ha [3, 13]: 40%
- pest or weed control at 125 g/ha [4, 12]: 70%
- pest or weed control at 500 g/ha [4, 12]: 75%
- pest or weed control at 125 g/ha [4, 13]: 30%
- pest or weed control at 500 g/ha [4, 13]: 35%
- pest or weed control at 125 g/ha [5, 12]: 80%
- pest or weed control at 500 g/ha [5, 12]: 85%
- pest or weed control at 125 g/ha [5, 13]: 90%
- pest or weed control at 500 g/ha [5, 13]: 95%
- pest or weed control at 125 g/ha [6, 12]: 90%
- pest or weed control at 500 g/ha [6, 12]: 90%
- pest or weed control at 125 g/ha [6, 13]: 75%
- pest or weed control at 500 g/ha [6, 13]: 90%
- pest or weed control at 125 g/ha ([7]; 125 g ai/ha, scale 0 to 100 (0 no effect, 100 complete control), read-out: Foxtail, Giant plant response rating): 80%
- pest or weed control at 16 g/ha ([7]; 16 g ai/ha, read-out: Plant response rating (scale of 0 to 100), Foxtail, Giant): 30%
- pest or weed control at 31 g/ha ([7]; 31 g ai/ha, read-out: Plant response rating (scale of 0 to 100), Foxtail, Giant): 65%
- pest or weed control at 62 g/ha ([7]; 62 g ai/ha, read-out: Plant response rating (scale of 0 to 100), Foxtail, Giant): 80%
- pest or weed control at 16 g/ha ([8]; 16 g ai/ha, read-out: Plant response rating (scale of 0 to 100), Goosegrass): 35%
- pest or weed control at 31 g/ha ([8]; 31 g ai/ha, read-out: Plant response rating (scale of 0 to 100), Goosegrass): 60%
- pest or weed control at 62 g/ha ([8]; 62 g ai/ha, read-out: Plant response rating (scale of 0 to 100), Goosegrass): 80%
- pest or weed control at 125 g/ha ([8]; 125 g ai/ha, scale 0 to 100 (0 no effect, 100 complete control), read-out: Goosegrass plant response rating): 80%
- pest or weed control at 16 g/ha ([9]; 16 g ai/ha, read-out: Plant response rating (scale of 0 to 100), Lambsquarters): 95%
- pest or weed control at 31 g/ha ([9]; 31 g ai/ha, read-out: Plant response rating (scale of 0 to 100), Lambsquarters): 95%
- pest or weed control at 62 g/ha ([9]; 62 g ai/ha, read-out: Plant response rating (scale of 0 to 100), Lambsquarters): 95%
- pest or weed control at 125 g/ha ([9]; 125 g ai/ha, scale 0 to 100 (0 no effect, 100 complete control), read-out: Lambsquarters plant response rating): 100%
- pest or weed control at 16 g/ha ([10]; 16 g ai/ha, read-out: Plant response rating (scale of 0 to 100), Velvetleaf): 75%
- pest or weed control at 31 g/ha ([10]; 31 g ai/ha, read-out: Plant response rating (scale of 0 to 100), Velvetleaf): 90%
- pest or weed control at 62 g/ha ([10]; 62 g ai/ha, read-out: Plant response rating (scale of 0 to 100), Velvetleaf): 95%
- pest or weed control at 125 g/ha ([10]; 125 g ai/ha, scale 0 to 100 (0 no effect, 100 complete control), read-out: Velvetleaf plant response rating): 95%
- pest or weed control at 31 g/ha ([11]; 31 g ai/ha, read-out: Plant response rating (scale of 0 to 100), Chickweed): 45%
- pest or weed control at 62 g/ha ([11]; 62 g ai/ha, read-out: Plant response rating (scale of 0 to 100), Chickweed): 50%
- pest or weed control at 125 g/ha ([11]; 125 g ai/ha, scale 0 to 100 (0 no effect, 100 complete control), read-out: Chickweed plant response rating): 95%
